Results reported in US6504052B1, “Excitatory amino acid receptor modulators” (Eli Lilly and Company, priority 1999, dated 2003).

Molecular target: T1, mGluR2 (Homo sapiens, UniProt Q14416)
T1 construct: expressed in transfected cells
Experiment: [3H]LY341495 binding displacement at mGluR2
Details: radioligand [3H]LY341495, cells expressing human mGluR subtypes, read-out: Ki for reversal of [3 H] LY341495 binding
Description: (D. D. Schoepp, et al., Neuropharmacol., 1996, 35, 1661-1672 and 1997, 36, 111).
(LY341495 is described in Ornstein et al., J. Med. Chem., 1998, 41, 346-357 and J. Med. Chem., 1998, 41, 358 to 378).

T1 sequence (Q14416 19-872): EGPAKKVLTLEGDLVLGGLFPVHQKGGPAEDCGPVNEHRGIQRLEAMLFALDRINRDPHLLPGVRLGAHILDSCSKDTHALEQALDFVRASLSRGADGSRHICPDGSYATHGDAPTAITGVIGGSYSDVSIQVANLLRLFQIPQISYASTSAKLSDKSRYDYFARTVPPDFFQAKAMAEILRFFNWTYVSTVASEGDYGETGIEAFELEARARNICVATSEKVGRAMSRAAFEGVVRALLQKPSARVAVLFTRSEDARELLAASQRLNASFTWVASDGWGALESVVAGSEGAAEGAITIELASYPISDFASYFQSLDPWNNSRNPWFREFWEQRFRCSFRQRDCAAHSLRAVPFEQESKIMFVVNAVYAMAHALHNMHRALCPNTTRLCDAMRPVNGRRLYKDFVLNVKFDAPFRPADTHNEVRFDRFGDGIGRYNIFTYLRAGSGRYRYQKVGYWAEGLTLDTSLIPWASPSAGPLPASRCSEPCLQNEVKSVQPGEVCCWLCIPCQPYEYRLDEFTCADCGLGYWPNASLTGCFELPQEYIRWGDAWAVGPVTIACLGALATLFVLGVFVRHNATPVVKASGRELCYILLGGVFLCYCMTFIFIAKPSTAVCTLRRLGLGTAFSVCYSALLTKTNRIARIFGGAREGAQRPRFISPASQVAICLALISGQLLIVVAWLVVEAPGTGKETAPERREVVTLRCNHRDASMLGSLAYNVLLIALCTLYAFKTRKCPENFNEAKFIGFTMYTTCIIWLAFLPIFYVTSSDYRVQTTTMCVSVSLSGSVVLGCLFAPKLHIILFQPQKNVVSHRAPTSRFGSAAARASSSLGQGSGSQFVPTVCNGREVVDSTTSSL

| Ki | Structure (SMILES) |
| --- | --- |
| 2640 nM | C[C@@H]1[C@H](C(=O)O)[C@H]1[C@H](N)C(=O)O [(2S,1′S,2′S,3′S)-2′-carboxy-3′methylcyclopropylglycine] |
| 100 nM | C[C@H]1[C@H](C(=O)O)[C@H]1[C@H](N)C(=O)O [Example 1, (2S,1′S,2′S,3′R)-2-(3′-Methyl-2′-carboxycyclopropyl)glycine] |
